# Data from US20250228873A1, “C25 R AND S ISOMERS OF AMINOSTEROLS AND METHODS OF MAKING AND USING THE SAME” (Enterin, Inc., priority 2022, published 2025).
# Where two headings read alike, the source gives them in different places.
# Columns and labels:
# PTPN2/TC-PTP = target: T1, PTPN2/TC-PTP (Homo sapiens, UniProt P17706); assay: Phosphatase panel, DiFMUP fluorescence assay; assay type: biochemical
# T1 construct: purchased Recation Biology Inc
# T1 sequence (P17706 1-415): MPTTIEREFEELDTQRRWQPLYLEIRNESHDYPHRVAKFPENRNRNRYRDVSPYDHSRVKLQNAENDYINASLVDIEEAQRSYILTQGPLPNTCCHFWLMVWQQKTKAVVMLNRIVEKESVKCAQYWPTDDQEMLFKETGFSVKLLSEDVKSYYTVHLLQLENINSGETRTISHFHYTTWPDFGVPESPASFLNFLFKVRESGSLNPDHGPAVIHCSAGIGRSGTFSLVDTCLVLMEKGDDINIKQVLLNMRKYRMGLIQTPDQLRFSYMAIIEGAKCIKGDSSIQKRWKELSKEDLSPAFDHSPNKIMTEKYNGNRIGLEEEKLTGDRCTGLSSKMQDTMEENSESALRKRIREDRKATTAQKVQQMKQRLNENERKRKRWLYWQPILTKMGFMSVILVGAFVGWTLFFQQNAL
# PTPRC/CD45 = target: T2, PTPRC/CD45 (Homo sapiens, UniProt P08575); assay: Phosphatase panel, DiFMUP fluorescence assay; assay type: biochemical
# T2 construct: purchased Recation Biology Inc
# T2 sequence (P08575 26-1306): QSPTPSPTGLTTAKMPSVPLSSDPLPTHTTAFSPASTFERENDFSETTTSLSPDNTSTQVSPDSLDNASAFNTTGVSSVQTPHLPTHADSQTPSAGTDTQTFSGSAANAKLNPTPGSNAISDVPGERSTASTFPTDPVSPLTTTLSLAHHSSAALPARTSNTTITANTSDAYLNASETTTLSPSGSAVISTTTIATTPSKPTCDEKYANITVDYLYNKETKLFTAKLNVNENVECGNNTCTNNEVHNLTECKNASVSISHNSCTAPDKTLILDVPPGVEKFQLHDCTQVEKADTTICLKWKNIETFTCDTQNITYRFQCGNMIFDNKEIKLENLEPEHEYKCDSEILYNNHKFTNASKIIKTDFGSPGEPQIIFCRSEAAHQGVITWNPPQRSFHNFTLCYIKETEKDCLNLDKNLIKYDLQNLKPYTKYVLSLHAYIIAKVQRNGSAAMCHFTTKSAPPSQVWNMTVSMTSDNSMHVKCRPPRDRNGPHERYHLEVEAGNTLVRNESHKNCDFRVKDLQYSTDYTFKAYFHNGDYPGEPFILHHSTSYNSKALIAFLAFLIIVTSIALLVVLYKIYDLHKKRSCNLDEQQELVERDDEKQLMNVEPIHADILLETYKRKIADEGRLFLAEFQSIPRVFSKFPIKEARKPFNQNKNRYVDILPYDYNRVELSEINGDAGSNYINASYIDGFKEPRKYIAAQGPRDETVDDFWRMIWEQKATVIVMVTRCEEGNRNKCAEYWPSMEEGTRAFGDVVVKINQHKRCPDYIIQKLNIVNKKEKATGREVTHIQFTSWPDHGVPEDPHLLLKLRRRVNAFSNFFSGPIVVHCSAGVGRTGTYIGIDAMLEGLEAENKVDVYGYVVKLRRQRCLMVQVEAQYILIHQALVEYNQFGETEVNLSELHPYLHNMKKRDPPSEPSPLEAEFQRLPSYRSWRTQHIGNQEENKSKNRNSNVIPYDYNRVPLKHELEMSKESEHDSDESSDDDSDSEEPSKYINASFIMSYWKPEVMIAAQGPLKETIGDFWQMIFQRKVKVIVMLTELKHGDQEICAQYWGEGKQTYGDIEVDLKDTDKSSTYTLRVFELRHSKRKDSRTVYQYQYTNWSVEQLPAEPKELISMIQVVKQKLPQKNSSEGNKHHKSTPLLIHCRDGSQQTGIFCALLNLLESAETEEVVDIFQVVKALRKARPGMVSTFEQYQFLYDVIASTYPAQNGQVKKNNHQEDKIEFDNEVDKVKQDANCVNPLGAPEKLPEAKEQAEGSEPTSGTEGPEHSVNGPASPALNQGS
# PTPN6/SHP1 = target: T3, PTPN6/SHP1 (Homo sapiens, UniProt P29350); assay: Phosphatase panel, DiFMUP fluorescence assay; assay type: biochemical
# T3 construct: purchased Recation Biology Inc
# [1] = target: Tyrosine-protein phosphatase non-receptor type 11 (Homo sapiens, UniProt Q06124); assay: Phosphatase panel, DiFMUP fluorescence assay; assay type: biochemical
# PTPN12/PTP-PEST = target: T4, PTPN12/PTP-PEST (Homo sapiens, UniProt Q05209); assay: Phosphatase panel, DiFMUP fluorescence assay; assay type: biochemical
# T4 construct: purchased Recation Biology Inc
# T4 sequence (Q05209 1-780): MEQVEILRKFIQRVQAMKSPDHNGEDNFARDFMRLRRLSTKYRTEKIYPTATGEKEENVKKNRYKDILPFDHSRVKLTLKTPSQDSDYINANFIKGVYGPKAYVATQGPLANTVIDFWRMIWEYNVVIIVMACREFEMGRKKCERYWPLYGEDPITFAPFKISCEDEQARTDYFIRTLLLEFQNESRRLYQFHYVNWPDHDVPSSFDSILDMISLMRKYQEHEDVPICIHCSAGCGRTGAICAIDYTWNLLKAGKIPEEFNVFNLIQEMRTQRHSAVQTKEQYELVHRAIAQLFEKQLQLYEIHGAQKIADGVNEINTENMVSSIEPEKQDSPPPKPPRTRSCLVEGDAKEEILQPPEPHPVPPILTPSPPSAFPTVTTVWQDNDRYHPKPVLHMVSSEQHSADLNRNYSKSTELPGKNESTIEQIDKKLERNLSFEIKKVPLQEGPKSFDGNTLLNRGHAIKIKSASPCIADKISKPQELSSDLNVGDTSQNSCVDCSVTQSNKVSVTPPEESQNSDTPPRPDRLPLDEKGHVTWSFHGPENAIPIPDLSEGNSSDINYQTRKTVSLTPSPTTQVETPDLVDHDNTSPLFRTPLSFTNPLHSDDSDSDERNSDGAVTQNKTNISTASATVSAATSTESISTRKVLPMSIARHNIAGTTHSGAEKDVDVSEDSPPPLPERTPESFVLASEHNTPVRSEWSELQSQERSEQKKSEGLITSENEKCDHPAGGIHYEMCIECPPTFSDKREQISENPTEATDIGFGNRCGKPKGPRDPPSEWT
# PTPN1/PTP1B = target: T5, PTPN1/PTP1B (Homo sapiens, UniProt P18031); assay: PTP1B inhibition, fluorescence time-course, 10-dose IC50 (Example 2); assay type: biochemical
# T5 construct: The enzyme was the human truncated form (1-321), recombinantly produced in Escherichia coli; host or cells: Escherichia coli
# T5 sequence (P18031 1-321): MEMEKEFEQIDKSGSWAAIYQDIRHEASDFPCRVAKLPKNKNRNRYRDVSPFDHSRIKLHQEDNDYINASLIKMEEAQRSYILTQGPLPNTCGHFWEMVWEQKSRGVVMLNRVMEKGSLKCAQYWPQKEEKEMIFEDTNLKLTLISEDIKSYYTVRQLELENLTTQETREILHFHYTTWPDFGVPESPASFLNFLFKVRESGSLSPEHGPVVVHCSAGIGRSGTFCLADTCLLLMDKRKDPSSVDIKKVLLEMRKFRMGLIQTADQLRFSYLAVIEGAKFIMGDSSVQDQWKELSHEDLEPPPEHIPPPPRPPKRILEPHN
# stomach tissues = assay: Stomach RNA-sequencing, ENT-02 (MSI-1436) treatment and congruence with ENT-03 (Example 10); assay type: in vivo, mice; conditions: stomach RNA-seq
# Description: Samples of stomach tissues from the mice were analysed by RNA-sequencing on an Illumina platform.
# To achieve these aims, data were subject to a quality control evaluation, differential expression and functional enrichment analyses, as well as a congruence analysis.
# […] At this threshold, differentially expressed genes were identified in all contrasts.
# As mentioned previously, for statistical robustness, only those with an adjusted p-value <0.05 should be considered. […]
# The amount of overlap is represented in FIGS. 28A-28D. For each comparison, the value in the plot represents the number of intersecting selected genes and the color represents the Jaccard index (the intersection over the union) for the two contrasts under consideration.
# Scatter plots, upset plots, venn diagrams, hypergeometric tests and Spearman rank correlation tests were employed to assess the level of overlap as shown in FIGS. 15-27.
# [2] = target: T6, PP2A Alpha/PP2R1A Complex (Homo sapiens, UniProt P67775); assay: Phosphatase panel, DiFMUP fluorescence assay; assay type: biochemical
# T6 construct: purchased Recation Biology Inc
# T6 sequence (P67775 whole entry): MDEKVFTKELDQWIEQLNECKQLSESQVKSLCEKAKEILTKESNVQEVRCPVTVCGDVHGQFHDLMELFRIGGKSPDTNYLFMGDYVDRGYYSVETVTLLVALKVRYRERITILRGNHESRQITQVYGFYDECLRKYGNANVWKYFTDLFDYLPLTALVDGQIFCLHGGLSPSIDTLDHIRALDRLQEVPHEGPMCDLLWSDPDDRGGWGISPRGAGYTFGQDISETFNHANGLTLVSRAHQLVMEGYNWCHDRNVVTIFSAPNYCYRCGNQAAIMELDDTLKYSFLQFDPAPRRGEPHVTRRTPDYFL
# T6 sequence (P30153 whole entry partner): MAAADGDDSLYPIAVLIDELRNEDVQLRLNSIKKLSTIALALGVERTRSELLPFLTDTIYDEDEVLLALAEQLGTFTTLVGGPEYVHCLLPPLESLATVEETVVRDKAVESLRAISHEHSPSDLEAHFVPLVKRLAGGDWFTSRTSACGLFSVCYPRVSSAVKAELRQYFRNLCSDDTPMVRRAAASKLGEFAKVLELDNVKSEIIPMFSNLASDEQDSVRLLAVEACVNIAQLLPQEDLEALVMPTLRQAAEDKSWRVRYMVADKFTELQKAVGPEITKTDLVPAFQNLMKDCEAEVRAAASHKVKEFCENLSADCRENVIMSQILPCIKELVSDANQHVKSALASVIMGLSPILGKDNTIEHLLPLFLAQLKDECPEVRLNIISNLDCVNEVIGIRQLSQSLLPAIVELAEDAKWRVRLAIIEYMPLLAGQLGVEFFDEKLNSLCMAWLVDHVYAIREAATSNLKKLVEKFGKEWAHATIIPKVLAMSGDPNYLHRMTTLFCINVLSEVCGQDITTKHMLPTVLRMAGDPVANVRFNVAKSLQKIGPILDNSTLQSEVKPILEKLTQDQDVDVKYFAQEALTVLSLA
# T3 sequence (P29350 whole entry): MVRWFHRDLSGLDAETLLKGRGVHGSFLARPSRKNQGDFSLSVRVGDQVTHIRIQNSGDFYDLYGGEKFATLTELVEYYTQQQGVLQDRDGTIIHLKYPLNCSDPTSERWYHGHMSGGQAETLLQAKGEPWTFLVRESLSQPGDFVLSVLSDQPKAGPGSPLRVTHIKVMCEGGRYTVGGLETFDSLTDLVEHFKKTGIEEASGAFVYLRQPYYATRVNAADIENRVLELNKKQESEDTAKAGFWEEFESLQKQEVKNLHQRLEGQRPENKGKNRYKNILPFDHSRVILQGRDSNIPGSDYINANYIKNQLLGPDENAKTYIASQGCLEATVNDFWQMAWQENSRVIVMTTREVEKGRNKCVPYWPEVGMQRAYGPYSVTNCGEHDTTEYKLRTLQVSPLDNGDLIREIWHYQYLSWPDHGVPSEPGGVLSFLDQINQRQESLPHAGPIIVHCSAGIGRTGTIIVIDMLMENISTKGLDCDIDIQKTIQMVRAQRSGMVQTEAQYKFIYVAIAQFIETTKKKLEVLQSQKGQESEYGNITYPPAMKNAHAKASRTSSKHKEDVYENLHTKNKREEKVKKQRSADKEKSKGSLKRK
# Sequence of Tyrosine-protein phosphatase non-receptor type 11 (Q06124 247-517): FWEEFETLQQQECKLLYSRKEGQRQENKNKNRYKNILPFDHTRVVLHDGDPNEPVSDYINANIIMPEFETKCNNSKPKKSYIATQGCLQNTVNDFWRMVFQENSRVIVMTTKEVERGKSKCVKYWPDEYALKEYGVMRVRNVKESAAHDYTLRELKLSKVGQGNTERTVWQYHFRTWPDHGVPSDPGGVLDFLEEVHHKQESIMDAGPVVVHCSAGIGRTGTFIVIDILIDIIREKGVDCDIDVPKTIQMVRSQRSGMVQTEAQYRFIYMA
structure (smiles),measurement,setting,value
"CCc1oc2cc(S(=O)(=O)Nc3ccc(S(=O)(=O)Nc4nccs4)cc3)ccc2c1C(=O)c1cc(Br)c(O)c(Br)c1 [PTP1B Inhibitor, 3-(3,5-Dibromo-4-hydroxy-benzoyl)-2-ethyl-benzofuran-6-sulfonicacid-(4-(thiazol-2-ylsulfamyl)-phenyl)-amide, reference compound]",IC50,"PTPN2/TC-PTP; Table 5C, read-out: Compound IC50 (M) PTPN2/TC-PTP",1.34e-05 M
same,IC50,"PTPN2/TC-PTP; Table 18B, read-out: inhibitory activity PTPN2/TC-PTP",7.53e-06 M
same,IC50,"PTPN2/TC-PTP; Table 19B, read-out: inhibitory activity PTPN2/TC-PTP",5.86e-06 M
same,IC50,"PTPRC/CD45; Table 5B, read-out: Compound IC50 (M) PTPRC/CD45",5.7e-05 M
same,IC50,"PTPRC/CD45; Table 18A, read-out: inhibitory activity PTPRC/CD45",2.8e-05 M
same,IC50,"PTPRC/CD45; Table 19A, read-out: inhibitory activity PTPRC/CD45",2.66e-05 M
same,IC50,"PTPN6/SHP1; Table 5B, read-out: Compound IC50 (M) PTPN6/SHP1",5.75e-06 M
same,IC50,"PTPN6/SHP1; Table 18A, read-out: inhibitory activity PTPN6/SHP1",3.47e-06 M
same,IC50,"PTPN6/SHP1; Table 19A, read-out: inhibitory activity PTPN6/SHP1",3.67e-06 M
same,IC50,[1],1.82 µM
same,IC50,"PTPN12/PTP-PEST; Table 5C, read-out: Compound IC50 (M) PTPN12/PTP-PEST",2.99e-05 M
same,IC50,"PTPN12/PTP-PEST; Table 18B, read-out: inhibitory activity PTPN12/PTP-PEST",2.16e-06 M
same,IC50,"PTPN12/PTP-PEST; Table 19B, read-out: inhibitory activity PTPN12/PTP-PEST",1.21e-06 M
[2H]C([2H])([2H])C([2H])(C(CC[C@@H](C)[C@H]1CCC2C3C(CC[C@@]21C)[C@@]1(C)CC[C@H](NCCCNCCCCNCCCN)C[C@@H]1C[C@H]3O)OS(=O)(=O)O)C([2H])([2H])[2H] (some centres unmarked) [Compound D7-1436],Slope (signal/min),PTPN1/PTP1B; Conc 1.00E−04 M,−161 signal/min
same,Slope (signal/min),PTPN1/PTP1B; Conc 1.11E−05 M,−319 signal/min
same,Slope (signal/min),PTPN1/PTP1B; Conc 1.23E−06 M,34760 signal/min
same,Slope (signal/min),PTPN1/PTP1B; Conc 1.37E−07 M,40150 signal/min
same,Slope (signal/min),PTPN1/PTP1B; Conc 1.52E−08 M,43819 signal/min
same,Slope (signal/min),PTPN1/PTP1B; Conc 3.33E−05 M,−362 signal/min
same,Slope (signal/min),PTPN1/PTP1B; Conc 3.70E−06 M,8429 signal/min
same,Slope (signal/min),PTPN1/PTP1B; Conc 4.12E−07 M,41755 signal/min
same,Slope (signal/min),PTPN1/PTP1B; Conc 4.57E−08 M,43697 signal/min
same,Slope (signal/min),PTPN1/PTP1B; Conc 5.08E−09 M,44655 signal/min
same,HILLSLOPE,PTPN1/PTP1B; Table 5A,−2.50
"CC(C)[C@@H](CC[C@@H](C)[C@H]1CC[C@H]2[C@@H]3[C@H](O)C[C@H]4C[C@@H](NCCCNCCCCN)CC[C@]4(C)[C@H]3CC[C@]12C)OS(=O)(=O)O (single isomer, unassigned) [Ent-01, Squalamine]","number of significant features, down-regulated, fold change threshold 4x","stomach tissues; old vs young mice, both treated, threshold 4x",69
same,"number of significant features, down-regulated, fold change threshold 8x","stomach tissues; old vs young mice, both treated, threshold 8x",36
same,"number of significant features, down-regulated, fold change threshold 16x","stomach tissues; old vs young mice, both treated, threshold 16x",27
same,"number of significant features, down-regulated, fold change threshold 4x","stomach tissues; treatment vs control, old mice, threshold 4x",66
same,"number of significant features, down-regulated, fold change threshold 8x","stomach tissues; treatment vs control, old mice, threshold 8x",25
same,"number of significant features, down-regulated, fold change threshold 16x","stomach tissues; treatment vs control, old mice, threshold 16x",11
same,"number of significant features, down-regulated, fold change threshold 8x","stomach tissues; treatment vs control, young mice, threshold 8x",47
same,"number of significant features, down-regulated, fold change threshold 16x","stomach tissues; treatment vs control, young mice, threshold 16x",12
same,"number of significant features, up-regulated, fold change threshold 4x","stomach tissues; treatment vs control, young mice, up-regulated, threshold 4x",58
same,"number of significant features, up-regulated, fold change threshold 8x","stomach tissues; treatment vs control, young mice, up-regulated, threshold 8x",38
same,"number of significant features, up-regulated, fold change threshold 16x","stomach tissues; treatment vs control, young mice, up-regulated, threshold 16x",28
"CC1(C(=O)O)C2CCC(O2)C1(C)C(=O)O (centres unmarked) [Canthardic Acid, Cantharidic acid, reference compound]",IC50,"[2]; Compound IC50 (M) PP2A Alpha/PP2R1A Complex, Table 5B",1.7e-08 M
same,IC50,"[2]; inhibitory activity PP2A Alpha/PP2R1A Complex, Table 18A",2.78e-08 M
same,IC50,"[2]; inhibitory activity PP2A Alpha/PP2R1A Complex, Table 19A",3.01e-08 M
